Data published in ChEMBL document CHEMBL1909046, “DrugMatrix in vitro pharmacology data”.
Where a SMILES comes first, the peptide text is derived from it. Bridges are numbered along the chain shown (N, C = ends). [ ]: non-standard residue; d: D form. The star is where a group is joined. Threoninol(2S,3R) = C[C@@H](O)[C@H](CO)N*

Legend:
Melanocortin receptor 4 = Melanocortin receptor 4 (Homo sapiens, UniProt P32245); format: cell membranes, Membrane; details: hek293; note: in other assays of this panel Not Active means under 50% inhibition at 10 µM
Melanocortin receptor 4, sequence (P32245 whole entry): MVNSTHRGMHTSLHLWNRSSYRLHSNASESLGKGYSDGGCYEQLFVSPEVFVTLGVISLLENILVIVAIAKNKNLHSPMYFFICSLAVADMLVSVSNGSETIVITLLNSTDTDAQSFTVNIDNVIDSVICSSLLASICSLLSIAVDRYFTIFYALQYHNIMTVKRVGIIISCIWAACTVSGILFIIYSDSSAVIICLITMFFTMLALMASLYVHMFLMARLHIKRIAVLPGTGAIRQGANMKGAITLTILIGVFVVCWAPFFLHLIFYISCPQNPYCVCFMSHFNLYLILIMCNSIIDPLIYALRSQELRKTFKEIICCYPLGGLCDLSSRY

[1] = DRUGMATRIX: Phosphodiesterase PDE3 enzyme inhibition (substrate: [3H]cAMP + cAMP); format: tissue-based, Homo sapiens; details: platelet; Not Active = under 50% inhibition at 10 µM
Estrogen receptor = biological target: T1, Estrogen receptor (Homo sapiens, UniProt P03372); details: sf9; note: in other assays of this panel Not Active means under 50% inhibition at 10 µM
T1 sequence (P03372 whole entry): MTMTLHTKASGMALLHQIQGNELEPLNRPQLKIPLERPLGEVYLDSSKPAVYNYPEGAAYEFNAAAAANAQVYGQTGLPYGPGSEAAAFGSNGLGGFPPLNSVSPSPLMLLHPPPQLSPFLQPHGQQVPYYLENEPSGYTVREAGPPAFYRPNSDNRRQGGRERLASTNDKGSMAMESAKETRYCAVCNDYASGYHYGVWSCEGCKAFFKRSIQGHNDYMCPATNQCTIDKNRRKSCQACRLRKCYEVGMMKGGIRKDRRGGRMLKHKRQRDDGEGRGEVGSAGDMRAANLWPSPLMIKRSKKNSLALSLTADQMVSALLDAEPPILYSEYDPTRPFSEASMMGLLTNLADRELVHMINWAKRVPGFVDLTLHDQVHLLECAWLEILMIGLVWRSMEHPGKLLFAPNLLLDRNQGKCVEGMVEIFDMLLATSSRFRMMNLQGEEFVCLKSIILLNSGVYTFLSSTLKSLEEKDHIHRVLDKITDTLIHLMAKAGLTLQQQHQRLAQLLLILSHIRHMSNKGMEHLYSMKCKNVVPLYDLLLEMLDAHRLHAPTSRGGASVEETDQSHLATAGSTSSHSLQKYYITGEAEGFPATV

Insulin receptor = Insulin receptor (Rattus norvegicus, UniProt P15127); format: cell membranes, Wistar, Liver, Membrane; note: in other assays of this panel Not Active means under 50% inhibition at 10 µM
Insulin receptor, sequence (P15127 27-759 limits assumed): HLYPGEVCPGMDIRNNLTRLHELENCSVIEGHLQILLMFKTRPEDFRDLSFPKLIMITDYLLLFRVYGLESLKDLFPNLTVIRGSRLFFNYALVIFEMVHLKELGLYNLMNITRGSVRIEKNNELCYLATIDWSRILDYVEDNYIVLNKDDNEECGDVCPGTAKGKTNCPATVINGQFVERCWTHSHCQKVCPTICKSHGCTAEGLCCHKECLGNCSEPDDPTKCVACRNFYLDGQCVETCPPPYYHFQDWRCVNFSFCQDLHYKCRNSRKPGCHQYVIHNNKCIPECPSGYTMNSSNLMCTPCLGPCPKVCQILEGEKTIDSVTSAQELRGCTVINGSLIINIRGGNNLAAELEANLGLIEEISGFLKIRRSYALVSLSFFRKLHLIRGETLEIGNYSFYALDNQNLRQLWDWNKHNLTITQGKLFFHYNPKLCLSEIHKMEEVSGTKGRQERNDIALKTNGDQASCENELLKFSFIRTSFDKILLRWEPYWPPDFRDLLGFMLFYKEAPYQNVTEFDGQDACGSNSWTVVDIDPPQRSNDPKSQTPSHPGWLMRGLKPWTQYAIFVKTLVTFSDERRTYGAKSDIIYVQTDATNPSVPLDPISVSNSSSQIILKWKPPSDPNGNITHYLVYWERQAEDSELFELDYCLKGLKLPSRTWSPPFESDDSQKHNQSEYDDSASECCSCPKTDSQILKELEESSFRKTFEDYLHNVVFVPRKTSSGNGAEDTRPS
Insulin receptor, sequence (P15127 764-1383 limits assumed): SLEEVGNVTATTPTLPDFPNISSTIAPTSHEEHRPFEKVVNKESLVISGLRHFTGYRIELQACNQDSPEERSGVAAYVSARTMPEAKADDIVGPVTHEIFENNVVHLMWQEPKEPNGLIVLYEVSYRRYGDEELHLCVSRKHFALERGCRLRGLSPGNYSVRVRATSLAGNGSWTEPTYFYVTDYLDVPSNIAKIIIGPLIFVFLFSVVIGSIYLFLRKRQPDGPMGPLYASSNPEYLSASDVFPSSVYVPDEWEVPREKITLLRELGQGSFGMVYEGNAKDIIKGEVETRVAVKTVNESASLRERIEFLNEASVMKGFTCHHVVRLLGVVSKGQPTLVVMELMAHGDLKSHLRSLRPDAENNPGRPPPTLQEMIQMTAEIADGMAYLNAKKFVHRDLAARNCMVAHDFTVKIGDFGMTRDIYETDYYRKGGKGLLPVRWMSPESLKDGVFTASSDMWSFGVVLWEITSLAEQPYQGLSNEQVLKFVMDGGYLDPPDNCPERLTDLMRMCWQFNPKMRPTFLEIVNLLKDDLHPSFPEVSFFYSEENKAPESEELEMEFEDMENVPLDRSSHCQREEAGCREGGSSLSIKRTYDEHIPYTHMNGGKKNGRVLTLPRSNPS

Cytochrome P450 2E1 = Cytochrome P450 2E1 (Homo sapiens, UniProt P05181); details: bti-tn-5b1-4; note: in other assays of this panel Not Active means under 50% inhibition at 10 µM
Cytochrome P450 2E1, sequence (P05181 whole entry): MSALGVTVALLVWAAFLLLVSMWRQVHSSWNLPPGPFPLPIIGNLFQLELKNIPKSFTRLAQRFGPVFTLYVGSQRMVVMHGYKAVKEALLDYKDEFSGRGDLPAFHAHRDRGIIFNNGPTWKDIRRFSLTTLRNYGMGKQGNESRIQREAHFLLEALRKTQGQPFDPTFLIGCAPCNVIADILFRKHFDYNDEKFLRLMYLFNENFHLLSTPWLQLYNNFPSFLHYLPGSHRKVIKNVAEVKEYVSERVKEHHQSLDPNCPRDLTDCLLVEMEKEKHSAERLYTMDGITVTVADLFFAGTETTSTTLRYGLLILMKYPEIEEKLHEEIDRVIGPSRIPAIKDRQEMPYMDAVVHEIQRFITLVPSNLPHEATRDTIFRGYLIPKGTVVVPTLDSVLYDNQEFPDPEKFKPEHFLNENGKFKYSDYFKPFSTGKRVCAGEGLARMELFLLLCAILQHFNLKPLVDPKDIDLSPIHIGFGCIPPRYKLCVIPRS

[2] = biological target: T2, C-X-C chemokine receptor type 2 (Homo sapiens, UniProt P25025); format: cell membranes, Membrane; details: cho-k1; note: in other assays of this panel Not Active means under 50% inhibition at 10 µM
T2 sequence (P25025 whole entry): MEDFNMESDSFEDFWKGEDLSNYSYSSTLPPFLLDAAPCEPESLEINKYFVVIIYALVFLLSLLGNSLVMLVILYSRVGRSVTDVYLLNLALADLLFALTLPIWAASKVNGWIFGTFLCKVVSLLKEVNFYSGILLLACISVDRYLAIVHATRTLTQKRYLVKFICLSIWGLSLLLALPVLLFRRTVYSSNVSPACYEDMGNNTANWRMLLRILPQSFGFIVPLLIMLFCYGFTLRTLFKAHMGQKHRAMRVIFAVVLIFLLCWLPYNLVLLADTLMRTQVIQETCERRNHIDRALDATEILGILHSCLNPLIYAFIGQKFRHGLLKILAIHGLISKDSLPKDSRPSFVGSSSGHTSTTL

[3] = biological target: Receptor tyrosine-protein kinase erbB-2 (Homo sapiens, UniProt P04626); experiment: biochemical; format: cell-based, Insect cells; details: insect cells
Receptor tyrosine-protein kinase erbB-2, sequence (P04626 whole entry): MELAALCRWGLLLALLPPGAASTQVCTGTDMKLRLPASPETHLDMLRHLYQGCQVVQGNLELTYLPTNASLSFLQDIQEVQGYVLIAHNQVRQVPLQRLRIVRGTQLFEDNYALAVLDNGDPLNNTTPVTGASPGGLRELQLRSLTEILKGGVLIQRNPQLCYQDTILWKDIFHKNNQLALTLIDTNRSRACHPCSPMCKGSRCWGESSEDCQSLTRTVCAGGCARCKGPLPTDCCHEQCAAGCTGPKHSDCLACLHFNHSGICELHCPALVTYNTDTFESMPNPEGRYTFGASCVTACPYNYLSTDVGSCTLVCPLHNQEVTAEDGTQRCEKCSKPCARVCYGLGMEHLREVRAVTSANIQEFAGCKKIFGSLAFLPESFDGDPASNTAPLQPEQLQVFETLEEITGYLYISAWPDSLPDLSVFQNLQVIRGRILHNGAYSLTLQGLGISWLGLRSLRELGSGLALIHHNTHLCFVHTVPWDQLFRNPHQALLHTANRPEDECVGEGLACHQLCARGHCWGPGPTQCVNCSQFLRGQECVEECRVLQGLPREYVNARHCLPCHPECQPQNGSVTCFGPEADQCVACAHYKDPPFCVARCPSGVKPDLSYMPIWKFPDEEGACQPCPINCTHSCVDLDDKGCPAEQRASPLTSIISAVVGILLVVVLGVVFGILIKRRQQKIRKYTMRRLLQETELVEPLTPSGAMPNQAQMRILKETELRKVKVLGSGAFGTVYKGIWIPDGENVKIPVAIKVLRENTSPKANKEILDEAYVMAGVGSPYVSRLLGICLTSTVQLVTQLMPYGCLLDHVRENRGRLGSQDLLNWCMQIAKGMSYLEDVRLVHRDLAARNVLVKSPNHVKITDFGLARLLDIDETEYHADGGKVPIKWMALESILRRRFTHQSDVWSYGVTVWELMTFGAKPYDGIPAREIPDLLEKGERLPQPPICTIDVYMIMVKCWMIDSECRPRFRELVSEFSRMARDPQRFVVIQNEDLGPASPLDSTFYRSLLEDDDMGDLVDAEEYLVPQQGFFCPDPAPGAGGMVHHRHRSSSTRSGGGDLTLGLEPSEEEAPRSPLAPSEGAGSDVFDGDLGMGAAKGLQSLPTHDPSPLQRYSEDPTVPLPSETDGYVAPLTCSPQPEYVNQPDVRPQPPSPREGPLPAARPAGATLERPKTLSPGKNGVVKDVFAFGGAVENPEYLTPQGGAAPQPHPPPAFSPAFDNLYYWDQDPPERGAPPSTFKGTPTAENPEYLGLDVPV

[4] = biological target: T3, Receptor-type tyrosine-protein phosphatase C (Homo sapiens, UniProt P08575); parameters: species or system Escherichia coli
T3 sequence (P08575 whole entry): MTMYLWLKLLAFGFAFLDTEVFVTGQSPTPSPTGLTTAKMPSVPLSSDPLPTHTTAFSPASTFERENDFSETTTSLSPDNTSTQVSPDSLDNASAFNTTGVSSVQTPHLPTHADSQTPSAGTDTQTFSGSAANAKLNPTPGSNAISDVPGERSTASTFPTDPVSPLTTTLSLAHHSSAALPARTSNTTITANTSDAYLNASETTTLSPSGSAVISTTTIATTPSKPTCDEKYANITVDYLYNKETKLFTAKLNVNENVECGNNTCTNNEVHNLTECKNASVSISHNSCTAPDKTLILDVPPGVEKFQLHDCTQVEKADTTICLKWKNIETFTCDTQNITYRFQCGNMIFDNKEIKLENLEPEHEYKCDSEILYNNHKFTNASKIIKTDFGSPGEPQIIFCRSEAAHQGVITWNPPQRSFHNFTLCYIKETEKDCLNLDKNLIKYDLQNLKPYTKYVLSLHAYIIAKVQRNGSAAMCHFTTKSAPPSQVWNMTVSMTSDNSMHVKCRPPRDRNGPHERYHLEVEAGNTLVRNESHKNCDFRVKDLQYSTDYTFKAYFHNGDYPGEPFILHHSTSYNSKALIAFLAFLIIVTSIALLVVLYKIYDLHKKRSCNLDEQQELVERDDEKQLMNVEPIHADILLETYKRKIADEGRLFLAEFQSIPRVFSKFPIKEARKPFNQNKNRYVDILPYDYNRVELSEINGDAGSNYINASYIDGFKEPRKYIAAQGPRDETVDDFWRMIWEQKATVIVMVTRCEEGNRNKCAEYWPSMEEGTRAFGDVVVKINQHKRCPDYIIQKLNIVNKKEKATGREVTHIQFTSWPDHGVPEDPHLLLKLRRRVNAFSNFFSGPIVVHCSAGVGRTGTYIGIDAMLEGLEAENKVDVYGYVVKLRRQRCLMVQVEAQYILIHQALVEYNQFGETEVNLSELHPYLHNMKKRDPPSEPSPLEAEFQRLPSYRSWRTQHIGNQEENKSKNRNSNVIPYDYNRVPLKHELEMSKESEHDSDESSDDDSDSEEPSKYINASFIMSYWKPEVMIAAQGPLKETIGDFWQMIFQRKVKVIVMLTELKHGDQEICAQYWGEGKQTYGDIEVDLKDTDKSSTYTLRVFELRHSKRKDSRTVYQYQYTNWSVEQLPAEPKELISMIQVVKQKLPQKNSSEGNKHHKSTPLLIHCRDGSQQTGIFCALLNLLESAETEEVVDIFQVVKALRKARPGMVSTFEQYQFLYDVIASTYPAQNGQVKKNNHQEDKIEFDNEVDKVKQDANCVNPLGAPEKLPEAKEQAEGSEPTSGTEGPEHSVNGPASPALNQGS

[5] = DRUGMATRIX: GABAA, Chloride Channel, TBOB radioligand binding (ligand: [3H] TBOB); format: cell membranes, Rattus norvegicus, Wistar, Cerebral cortex, Membrane; details: Not Active = under 50% inhibition at 10 µM

COc1ccccc1C(=O)N1CCC(Cc2ccccc2)CC1
Not Active: IC50 (Melanocortin receptor 4) | IC50 [1] | Ki [1] | IC50 (Estrogen receptor) | IC50 (Insulin receptor) | IC50 (Cytochrome P450 2E1) | Ki (Cytochrome P450 2E1) | IC50 [2] | IC50 [3] | IC50 [4] | IC50 [5] | Ki [5]

Cc1ccccc1C(=O)N1CCC(Cc2ccccc2)CC1
Not Active: IC50 (Melanocortin receptor 4) | IC50 [1] | Ki [1] | IC50 (Estrogen receptor) | IC50 (Insulin receptor) | IC50 (Cytochrome P450 2E1) | Ki (Cytochrome P450 2E1) | IC50 [2] | IC50 [3] | IC50 [4] | IC50 [5] | Ki [5]

N=C(Nc1ccccc1)Nc1ccccc1
Not Active: IC50 (Melanocortin receptor 4) | IC50 [1] | Ki [1] | IC50 (Estrogen receptor) | IC50 (Insulin receptor) | IC50 (Cytochrome P450 2E1) | Ki (Cytochrome P450 2E1) | IC50 [2] | IC50 [3] | IC50 [4] | IC50 [5] | Ki [5]

C[C@@H](O)[C@H](CO)NC(=O)[C@@H]1CSSC[C@H](NC(=O)[C@H](N)Cc2ccccc2)C(=O)N[C@@H](Cc2ccccc2)C(=O)N[C@H](Cc2c[nH]c3ccccc23)C(=O)N[C@@H](CCCCN)C(=O)N[C@@H]([C@@H](C)O)C(=O)N1 (H-[dF]CF[dW]KTC-{Threoninol(2S,3R)}; disulfide 2-7)
Not Active: IC50 (Melanocortin receptor 4) | IC50 [1] | Ki [1] | IC50 (Estrogen receptor) | IC50 (Insulin receptor) | IC50 (Cytochrome P450 2E1) | Ki (Cytochrome P450 2E1) | IC50 [2] | IC50 [3] | IC50 [4] | IC50 [5] | Ki [5]

S=C=Nc1cccc2ccccc12 [1-NAPHTHYLISOTHIOCYANATE]
Not Active: IC50 (Melanocortin receptor 4) | IC50 [1] | Ki [1] | IC50 (Estrogen receptor) | IC50 (Insulin receptor) | IC50 (Cytochrome P450 2E1) | Ki (Cytochrome P450 2E1) | IC50 [2] | IC50 [3] | IC50 [4] | IC50 [5] | Ki [5]

C[C@](O)(CS(=O)(=O)c1ccc(F)cc1)C(=O)Nc1ccc(C#N)c(C(F)(F)F)c1 [(R)-BICALUTAMIDE]
Not Active: IC50 (Melanocortin receptor 4) | IC50 [1] | Ki [1] | IC50 (Estrogen receptor) | IC50 (Insulin receptor) | IC50 (Cytochrome P450 2E1) | Ki (Cytochrome P450 2E1) | IC50 [2] | IC50 [3] | IC50 [4] | IC50 [5] | Ki [5]

O=NN(CCCl)C(=O)NCCCl [CARMUSTINE]
Not Active: IC50 (Melanocortin receptor 4) | IC50 [1] | Ki [1] | IC50 (Estrogen receptor) | IC50 (Insulin receptor) | IC50 [2] | IC50 [3] | IC50 [4] | IC50 [5] | Ki [5]

O=C(N[C@H](CO)[C@H](O)c1ccc([N+](=O)[O-])cc1)C(Cl)Cl [CHLORAMPHENICOL]
Not Active: IC50 (Melanocortin receptor 4) | IC50 [1] | Ki [1] | IC50 (Estrogen receptor) | IC50 (Insulin receptor) | IC50 [2] | IC50 [3] | IC50 [4] | IC50 [5] | Ki [5]

C/C=C/C[C@@H](C)[C@@H](O)[C@H]1C(=O)N[C@@H](CC)C(=O)N(C)CC(=O)N(C)[C@@H](CC(C)C)C(=O)N[C@@H](C(C)C)C(=O)N(C)[C@@H](CC(C)C)C(=O)N[C@@H](C)C(=O)N[C@H](C)C(=O)N(C)[C@@H](CC(C)C)C(=O)N(C)[C@@H](CC(C)C)C(=O)N(C)[C@@H](C(C)C)C(=O)N1C [CYCLOSPORINE]
Not Active: IC50 (Melanocortin receptor 4) | IC50 [1] | Ki [1] | IC50 (Estrogen receptor) | IC50 (Insulin receptor) | IC50 [2] | IC50 [3] | IC50 [4]

CCn1cc(C(=O)O)c(=O)c2cc(F)c(N3CCN(C)CC3)cc21 [PEFLOXACIN]
Not Active: IC50 (Melanocortin receptor 4) | IC50 [1] | Ki [1] | IC50 (Estrogen receptor) | IC50 (Insulin receptor) | IC50 [2] | IC50 [3] | IC50 [4] | IC50 [5] | Ki [5]

CADMIUM DICHLORIDE
Not Active: IC50 (Melanocortin receptor 4) | Ki (Melanocortin receptor 4) | IC50 [1] | Ki [1] | IC50 (Estrogen receptor) | Ki (Estrogen receptor) | IC50 (Insulin receptor) | Ki (Insulin receptor) | IC50 (Cytochrome P450 2E1) | Ki (Cytochrome P450 2E1) | IC50 [2] | Ki [2] | IC50 [4] | Ki [4] | IC50 [5] | Ki [5]
